Assay results from paper PMC8315922, “In Vitro Identification and In Vivo Confirmation of Inhibitors for Sweet Potato Chlorotic Stunt Virus RNA Silencing Suppressor, a Viral RNase III” (Journal of Virology, 2021).

Assays:
[1] = system: SPFMV; conditions: plants in soil, 10 μM foliar spray twice a week for 1 month, vs water-treated
Protocol: (§1) Compounds were administered by regular foliar spray over 1 month.
(§2) Sweetpotato plants cultivar 'Huachano' (accession CIP420065) were side-graft inoculated with both SPFMV (East African strain isolate Nam1) and SPCSV-Ug (East African serotype 2) as described previously ([62]). Plantlets were propagated by taking single-node stems grown in a plant culture medium ([33]). Next, plantlets with newly formed roots were transferred to glass tubes (18 by 150 mm) containing 10 ml of medium supplemented with either 50 μM compound (diluted in DMSO; final DMSO concentration, 0.1%) or only 0.1% DMSO as a control. For plant experiments in soil, plantlets were transferred to pots (6 by 6 by 10 cm) filled with a mixture of sand, humus, and washed soil. After 1 week, plants were treated by foliar spraying using either individual compounds at a single concentration (10 μM) (treatment) or water (control/mock) twice a week for 1 month. All plants were grown at 22°C with 60% humidity and a 16-h light/8-h dark photoperiod for 28 days in culture medium and for 41 days in soil. The Finnish National Plant Phenotyping Infrastructure (NaPPI) was used to monitor plant viral disease symptoms as described in our previous study ([33]). Four compounds were tested with the phenotyping platform in two independent batches, each of which included five biological replicates.
(§3) Leaf samples were collected from plants grown in culture medium or soil for 28 or 41 days, respectively, and frozen in liquid nitrogen. Total RNA was extracted using the Spectrum plant total RNA kit (Sigma-Aldrich). First-strand cDNA was synthesized using the Transcriptor first-strand cDNA synthesis kit (Roche, Basel, Switzerland). Gene expression was measured in a final volume of 10 μl (containing 2 μl 10-fold-diluted cDNA, 5 μl SYBR green I master mix [Roche], and 2.5 μM primers) using the LightCycler 480 instrument II (Roche). All RT-qPCR experiments were conducted in triplicate on three and five biological replicates from plants grown in culture medium and soil, respectively. The primer list can be found in our previous study ([33]).
(§4) For HTS, the activity of CSR3 was calculated by measuring the change in fluorescence as a function of the reaction time using MARS Data Analysis software (BMG Labtech). To evaluate the CSR3 inhibition efficiency of individual compounds, the PI of each compound was calculated using the slope values for the sample, positive control, and negative control according to the following equation: PI = 100 × [1 − (sample − positive)/(negative − positive)]%. IC50 and DSS values were calculated using concentration-specific PI values according to a previous study ([31]). Relative gene expression was calculated using the classical 2^−ΔΔ^CT method ([63]).

[2] = system: SPCSV; conditions: plants in soil, 10 μM foliar spray twice a week for 1 month, vs water-treated
Protocol: as §1, §2, §3, §4

[3] = target: T1, CSR3 (Sweet potato chlorotic stunt virus, UniProt Q8JJW8); assay: Binding affinity assay using MST; conditions: for Binding (Yes/No): MST binding call; for Binding (Yes/No) / Response Amplitude: Table S4; for Response Amplitude: MST response amplitude; for Comments: MST behaviour of compound (V-shape response, fluorescence quenching, interference, aggregator)
T1 sequence (Q8JJW8 1-228): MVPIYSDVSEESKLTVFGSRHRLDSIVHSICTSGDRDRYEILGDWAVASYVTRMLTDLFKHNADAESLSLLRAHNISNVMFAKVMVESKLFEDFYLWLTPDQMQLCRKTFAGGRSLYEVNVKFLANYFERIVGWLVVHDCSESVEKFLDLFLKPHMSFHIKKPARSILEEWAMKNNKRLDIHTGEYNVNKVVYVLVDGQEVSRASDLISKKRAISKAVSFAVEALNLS
Protocol: Binding affinity assays were first carried out with the 99 commercial compounds using the MST method.
The labeled-protein solution containing 500 nM proteins and 40 nM dye was prepared in PBS buffer with 2% dimethyl sulfoxide (DMSO) for the assay. The 12 concentrations for each compound were obtained by 2-fold serial dilutions (0.2 μM to 400 μM). […] Two independent experiments were carried out in premium coated capillaries (NanoTemper, Munich, Germany) using a Monolith NT.Automated instrument (NanoTemper) with the power set at high (80%), the light-emitting diode (LED) power (pico red) set at 5%, and the on-time set at 20 s. The dissociation constant (Kd) was determined using the MO.Affinity Analysis program (NanoTemper).

[4] = system: human enzymes or bacterial proteins; design: method as in earlier work; conditions: ref PubChem https://pubchem.ncbi.nlm.nih.gov/compound/7114450#section=Biological-Test-Results; cited from earlier work
[5] = target: CSR3 (RNase III of SPCSV) (Sweet potato chlorotic stunt virus, UniProt Q8JJW8); assay: Kinetic-based HTS (FRET, labeled 22-bp siRNA cleavage), one concentration; format: biochemical; conditions: compound 10 μM, 375 nM siRNA, 37°C
Description: Based on the catalytic activity of CSR3 on 22-bp siRNA, our kinetic-based HTS assay was designed using distance-dependent FRET technology. Specifically, one strand of siRNA, as a substrate, was labeled with a fluorescent dye (6-carboxyfluorescein [FAM]) at the 5′ end and a quencher (black hole quencher 1 [BHQ1]) at the 3′ end. The initial reaction rate of CSR3 was quantified using the slope of raw fluorescence under an excitation/emission spectrum at 485/520 nm (Fig. 3A). […] In this study, a total of 6,622 compounds (including 6,400 selected from Glide docking and 222 empirically selected compounds for preliminary assay setup) were screened using kinetic-based HTS at a final concentration of 10 μM. All 384-well screening plates contained 32 negative (with CSR3 [i.e., the substrate was successfully cleaved]) and 32 positive (without CSR3 [i.e., the substrate remained intact]) control reaction mixtures. To evaluate the quality of the HTS assay, the Z-factor (Z′) parameter was calculated using the reaction rates of the positive and negative controls ([30]). […]
The HTS assay was designed based on FRET using a 22-bp siRNA (forward sequence, […]; reverse sequence, […]) with a 2-nucleotide (nt) 3′ overhang labeled with the fluorescent dye 6-carboxyfluorescein (FAM) and a black hole quencher (BHQ1) on the sense strand (Metabion, Munich, Germany). […] The plates were read with a PHERAstar FS reader (BMG Labtech, Ortenberg, Germany).
as §4

Compound	log2 fold change in coat protein expression of SPFMV [1]	log2 fold change in coat protein expression of SPCSV [2]	Binding (Yes/No) [3]	Response Amplitude [3]	activity in inhibitor screens for human enzymes or bacterial proteins [4]	Comments [3]	PI values (percentage of inhibition) [5] [%]
O=C(O)c1ccc(C2Nc3c(Br)cccc3C3C=CCC32)cc1 (stereo not drawn) [FIMM022230]	−0.73	−0.58	No	68	inactive		
O=C1c2c(O)ccc(O)c2C(=O)c2c(NCCNCCO)ccc(NCCNCCO)c21 [FIMM000490]			No	0		Interference	102.062
COc1cc(C=C2C(=O)NC(=S)NC2=O)ccc1OCc1ccccc1[N+](=O)[O-] [FIMM101864]			No	0		Aggregator	98.4382
Cc1ccc(C2Nc3ccc(C(=O)O)cc3C3C=CCC32)cc1 (stereo not drawn) [FIMM031755]	−1.33	−1.30	No	0	affected the activity of chain B of the human cytokine/receptor binary complex		
